Source: patent US7820837B2, “Condensed ring compound” (Takeda Pharmaceutical Company Limited, priority 2003, dated 2010)

Biological target: T1, human GPR40 (Homo sapiens, UniProt O14842)
T1 construct: expressed in transfected cells
Test: Determination of EC50 on human GPR40 (intracellular calcium change by FLIPR in CHO cells stably expressing human GPR40)
Assay type: cell-based
Conditions: CHO cell line stably expressing human GPR40; changes in intracellular calcium concentration measured by FLIPR (Fluo3-AM); read-out: EC50 (Receptor Function Modulating Action on GPR40)
Protocol: Determination of EC50 of the Compound of Example on Human GPR40
For determination of EC50, CHO cell line that stably expressed human GPR40 was used. Unless otherwise indicated, the CHO cell line was cultured using α-MEM medium (Invitrogen) containing 10% fetal calf serum (Invitrogen).
The cells cultured to nearly confluent were rinsed with PBS (Invitrogen) on the previous day of the assay, peeled off with 0.05% Trypsin•EDTA solution (Invitrogen) and recovered by centrifugation. The number of the obtained cells was counted, and the cells were diluted such that 3×10^5 cells were contained per 1 mL of the medium, dispensed to a Black welled 96-well plate (coster) by 100 μL per well and cultured overnight in a CO2 incubator. Various test samples were added to the CHO cells thus prepared, and the changes in the intracellular calcium concentration were measured using FLIPR (Molecular Device). The below-mentioned pre-treatment was applied to measure changes in the intracellular calcium concentration by FLIPR.
An assay buffer for adding a fluorescence dye Fluo3-AM (DOJIN) to the cells, or for washing the cells immediately before FLIPR assay was prepared. To a solution of 1M HEPES (pH 7.4, DOJIN, 20 mL) added to HBSS (Invitrogen, 1000 mL) (hereinafter HBSS/HEPES solution) was added a solution (10 mL) obtained by dissolving probenecid (Sigma, 710 mg) in 1N NaOH (5 mL), and adding and mixing an HBSS/HEPES solution (5 mL), and the resulting solution was used as an assay buffer. Fluo3-AM (50 μg) was dissolved in dimethyl sulfoxide (Wako, 21 μL), and an equivalent amount of 20% pluronic acid (Molecular Probes) was added and mixed. The solution was added to the assay buffer (10.6 mL) supplemented with fetal calf serum (105 μL) to give a fluorescence dye solution. On the previous day of assay, the medium of the CHO cells newly inoculated to the Black welled 96-well plate was removed, the fluorescence dye solution was immediately dispensed by 100 μL per well and the cells were cultured in a CO2 incubator for 1 hr to allow intake of the fluorescence dye by the cells. The cells after the culture were washed with the above-mentioned assay buffer and set on FLIPR. The test sample was diluted with DMSO in advance, dispensed to polypropylene 96-well plate (sample plate) by 2 μL, and cryopreserved at −20° C. To the thawed sample plate was added an assay buffer containing 0.015% CHAPS (DOJIN) by 198 μL, and simultaneously set on FLIPR together with the cell plate. After the aforementioned pre-treatment, changes in the intracellular calcium concentration upon addition of various test samples were measured by FLIPR.

T1 sequence (O14842 whole entry): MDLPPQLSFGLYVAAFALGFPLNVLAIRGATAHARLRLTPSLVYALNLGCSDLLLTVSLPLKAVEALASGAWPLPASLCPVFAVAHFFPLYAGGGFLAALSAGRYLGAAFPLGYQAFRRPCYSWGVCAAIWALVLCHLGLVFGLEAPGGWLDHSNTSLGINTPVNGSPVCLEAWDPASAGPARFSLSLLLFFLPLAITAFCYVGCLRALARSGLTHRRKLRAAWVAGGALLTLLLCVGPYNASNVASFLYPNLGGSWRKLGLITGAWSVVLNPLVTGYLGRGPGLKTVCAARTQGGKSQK

Structure (SMILES) | EC50 [µM]
O=C(O)CC1CCCc2cc(OCc3cccc(Oc4ccccc4)c3)ccc21 (stereo not drawn) [Example 6, (6-((3-phenoxybenzyl)oxy)-1,2,3,4-tetrahydro-1-naphthalenyl)acetic acid] | < 0.1
Cc1cccc(C)c1-c1cccc(COc2ccc3c(c2)CCCC3CC(=O)O)c1 (stereo not drawn) [Example 11, {6-[(2′,6′-dimethylbiphenyl-3-yl)methoxy]-1,2,3,4-tetrahydronaphthalen-1-yl}acetic acid] | < 0.1
Cc1cccc(C)c1-c1cccc(COc2ccc3c(c2)OCCC(C(=O)O)C3)c1 (stereo not drawn) [Example 13, 8-[(2′,6′-dimethylbiphenyl-3-yl)methoxy]-2,3,4,5-tetrahydro-1-benzoxepine-4-carboxylic acid] | < 0.1
O=C(O)CC1CCc2cc(OCc3cccc(Oc4ccccc4)c3)ccc21 (stereo not drawn) [Example 15, {5-[(3-phenoxybenzyl)oxy]-2,3-dihydro-1H-inden-1-yl}acetic acid] | < 0.1
Cc1cccc(C)c1-c1cccc(COc2ccc3c(c2)CCC3CC(=O)O)c1 (stereo not drawn) [Example 17, {5-[(2′,6′-dimethylbiphenyl-3-yl)methoxy]-2,3-dihydro-1H-inden-1-yl}acetic acid] | < 0.1
CCCN(Cc1ccc(COc2ccc3c(c2)CCCC3CC(=O)O)cc1)c1nc(-c2ccccc2)cs1 (stereo not drawn) [Example 19, {6-[(4-{[(4-phenyl-1,3-thiazol-2-yl)(propyl)amino]methyl}benzyl)oxy]-1,2,3,4-tetrahydronaphthalen-1-yl}acetic acid] | < 1
CCCN(Cc1ccc(COc2ccc3c(c2)OCCC(C(=O)O)C3)cc1)c1nc(-c2ccccc2)cs1 (stereo not drawn) [Example 21, 8-[(4-{[(4-phenyl-1,3-thiazol-2-yl)(propyl)amino]methyl}benzyl)oxy]-2,3,4,5-tetrahydro-1-benzoxepine-4-carboxylic acid] | < 1
Cc1cccc(C)c1-c1cccc(COc2ccc3c(c2)CCCCC3CC(=O)O)c1 (stereo not drawn) [Example 25, {2-[(2′,6′-dimethylbiphenyl-3-yl)methoxy]-6,7,8,9-tetrahydro-5H-benzo[7]annulen-5-yl}acetic acid] | < 1
Cc1cccc(C)c1-c1cccc(COc2ccc3c(c2)OCC3CC(=O)O)c1 (stereo not drawn) [Example 33, {6-[(2′,6′-dimethylbiphenyl-3-yl)methoxy]-2,3-dihydro-1-benzofuran-3-yl}acetic acid] | < 0.1
CCCN(Cc1ccc(COc2ccc3c(c2)OCC3CC(=O)O)cc1)c1nc(-c2ccccc2)cs1 (stereo not drawn) [Example 35, {6-[(4-{[(4-phenyl-1,3-thiazol-2-yl)(propyl)amino]methyl}benzyl)oxy]-2,3-dihydro-1-benzofuran-3-yl}acetic acid] | < 0.1
Cc1ccc2ccccc2c1-c1cccc(COc2ccc3c(c2)OCC3CC(=O)O)c1 (stereo not drawn) [Example 47, (6-{[3-(2-methyl-1-naphthyl)benzyl]oxy}-2,3-dihydro-1-benzofuran-3-yl)acetic acid] | < 0.1
CCCCOCCOc1ccc(-c2cccc(COc3ccc4c(c3)OCC4CC(=O)O)c2)c(C)c1 (stereo not drawn) [Example 58, (6-{[4′-(2-butoxyethoxy)-2′-methylbiphenyl-3-yl]methoxy}-2,3-dihydro-1-benzofuran-3-yl)acetic acid] | < 0.1
O=C(O)CC1COc2cc(OCc3ccc(Cn4c(-c5ccccc5)cc5ccccc54)cc3)ccc21 (stereo not drawn) [Example 66, [6-({4-[(2-phenyl-1H-indol-1-yl)methyl]benzyl}oxy)-2,3-dihydro-1-benzofuran-3-yl]acetic acid] | < 0.1
Cc1cc(OCc2ccccc2)cc(C)c1-c1cccc(COc2ccc3c(c2)OCC3CC(=O)O)c1 (stereo not drawn) [Example 70, (6-{[4′-(benzyloxy)-2′,6′-dimethylbiphenyl-3-yl]methoxy}-2,3-dihydro-1-benzofuran-3-yl)acetic acid] | < 0.1
O=C(O)CC1COc2cc(OCc3ccc(CN(CCc4ccccc4)c4nc(-c5ccccc5)cs4)cc3)ccc21 (stereo not drawn) [Example 73, calcium {6-[(4-{[(2-phenylethyl)(4-phenyl-1,3-thiazol-2-yl)amino]methyl}benzyl)oxy]-2,3-dihydro-1-benzofuran-3-yl}acetate] | < 1
Cc1cccc(C)c1-c1cc(COc2ccc3c(c2)OCC3CC(=O)O)ccc1OCc1ccccc1 (stereo not drawn) [Example 75, (6-{[6-(benzyloxy)-2′,6′-dimethylbiphenyl-3-yl]methoxy}-2,3-dihydro-1-benzofuran-3-yl)acetic acid] | < 0.1
O=C(O)CC1CCCc2nc(SCc3cccc(Oc4ccccc4)c3)sc21 (stereo not drawn) [Example 78, {2-[(3-phenoxybenzyl)thio]-4,5,6,7-tetrahydro-1,3-benzothiazol-7-yl}acetic acid] | < 0.1
C/C(=C\COc1ccc2c(c1)OCC2CC(=O)O)c1ccc2c(c1)CCCC2 (stereo not drawn) [Example 125, (6-{[(2E)-3-(5,6,7,8-tetrahydro-2-naphthalenyl)-2-buten-1-yl]oxy}-2,3-dihydro-1-benzofuran-3-yl)acetic acid] | < 1
